Results as given in ChEMBL document CHEMBL1201862, “PubChem BioAssay data set” (2004).
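Five compound concentrations were applied to cells in 96-well plates for 48 hours; endpoints were derived by simple linear interpolation of the resulting dose-response curve. Abbreviation: GI50, concentration required for 50% inhibition of growth.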 Activity calls are given as the source filed them. No stated cut-off is given here; in the data, active = GI50 up to about 1.1 µM and inactive = higher.

How the values were obtained:
Assay in all cases: growth of human tumour cells (NCI), 48 h
[1] = tested on: 786-0
[2] = tested on: A498
[3] = tested on: A549
[4] = tested on: ACHN
[5] = tested on: CAKI-1
[6] = tested on: CCRF-CEM
[7] = tested on: COLO 205
[8] = tested on: DLD-1
[9] = tested on: DMS-114
[10] = tested on: DMS-273
[11] = tested on: EKVX
[12] = tested on: HCC 2998
[13] = tested on: HCT-116
[14] = tested on: HCT-15
[15] = tested on: HL-60
[16] = tested on: HOP-92
[17] = tested on: HT-29
[18] = tested on: IGROV-1
[19] = tested on: K562
[20] = tested on: KM-20L2
[21] = tested on: KM12
[22] = tested on: LOX IMVI
[23] = tested on: LXFL 529
[24] = tested on: M14
[25] = tested on: MOLT-4
[26] = tested on: Malme-3M
[27] = tested on: NCI-H226
[28] = tested on: NCI-H23
[29] = tested on: NCI-H460
[30] = tested on: OVCAR-3
[31] = tested on: OVCAR-4
[32] = tested on: OVCAR-5
[33] = tested on: OVCAR-8
[34] = tested on: RPMI-8226
[35] = tested on: RXF 393
[36] = tested on: SF-268
[37] = tested on: SF-295
[38] = tested on: SF-539
[39] = tested on: SK-MEL-28
[40] = tested on: SK-MEL-2
[41] = tested on: SK-MEL-5
[42] = tested on: SN12C
[43] = tested on: SNB-19
[44] = tested on: SNB-78
[45] = tested on: SW-620
[46] = tested on: U-251
[47] = tested on: UACC-257
[48] = tested on: UACC-62
[49] = tested on: UO-31
[50] = tested on: XF498
[51] = tested on: HOP-62
[52] = tested on: NCI-H522
[53] = tested on: SNB-75
[54] = tested on: SR
[55] = tested on: TK-10
[56] = tested on: M19-MEL
[57] = tested on: SK-OV-3
[58] = tested on: BT-549
[59] = tested on: DU-145
[60] = tested on: Hs-578T
[61] = tested on: MCF7
[62] = tested on: MDA-MB-231
[63] = tested on: MDA-MB-435
[64] = tested on: MDA-N
[65] = tested on: NCI/ADR-RES
[66] = tested on: PC-3
[67] = tested on: T47D

`Cc1cc(N(CCC#N)S(=O)(=O)c2ccccc2)ccc1/C=C1\N=C(c2ccc(Cl)cc2)OC1=O` was tested, and the GI50 [1] was > 100 µM (inactive), the GI50 [2] was > 100 µM (inactive) and the GI50 [3] was > 100 µM (inactive). For the same compound, the GI50 [4] was > 100 µM (inactive), the GI50 [5] was > 100 µM (inactive) and the GI50 [6] was 55.5 µM (inactive). For the same compound, the GI50 [7] was > 100 µM (inactive), the GI50 [8] was > 100 µM (inactive) and the GI50 [9] was > 100 µM (inactive). The GI50 [10] was > 100 µM (inactive), the GI50 [11] was > 100 µM (inactive) and the GI50 [12] was > 100 µM (inactive). For the same compound, the GI50 [13] was > 100 µM (inactive), the GI50 [14] was over 100 µM and the GI50 [15] was > 100 µM (inactive). For the same compound, the GI50 [16] was > 100 µM (inactive), the GI50 [17] was > 100 µM (inactive) and the GI50 [18] was > 100 µM (inactive). The GI50 [19] was > 100 µM (inactive), the GI50 [20] was > 100 µM (inactive) and the GI50 [21] was > 100 µM (inactive). The GI50 [22] was > 100 µM (inactive), the GI50 [23] was > 100 µM (inactive) and the GI50 [24] was > 100 µM (inactive). For the same compound, the GI50 [25] was > 100 µM (inactive), the GI50 [26] was > 100 µM (inactive) and the GI50 [27] was 38.1 µM (inactive). For the same compound, the GI50 [28] was > 100 µM (inactive), the GI50 [29] was > 100 µM (inactive) and the GI50 [30] was > 100 µM (inactive). For the same compound, the GI50 [31] was > 100 µM (inactive), the GI50 [32] was > 100 µM (inactive) and the GI50 [33] was > 100 µM (inactive). For the same compound, the GI50 [34] was > 100 µM (inactive), the GI50 [35] was > 100 µM (inactive) and the GI50 [36] was > 100 µM (inactive). For the same compound, the GI50 [37] was > 100 µM (inactive), the GI50 [38] was > 100 µM (inactive) and the GI50 [39] was > 100 µM (inactive). The GI50 [40] was > 100 µM (inactive), the GI50 [41] was > 100 µM (inactive) and the GI50 [42] was > 100 µM (inactive). For the same compound, the GI50 [43] was > 100 µM (inactive), the GI50 [44] was > 100 µM (inactive) and the GI50 [45] was > 100 µM (inactive). The GI50 [46] was 54 µM (inactive), the GI50 [47] was > 100 µM (inactive) and the GI50 [48] was > 100 µM (inactive). The GI50 [49] was > 100 µM (inactive) and the GI50 [50] was > 100 µM (inactive).

`O=[N+]([O-])C=C(c1ccc(Cl)cc1)c1ccc(Cl)cc1` was tested, and the GI50 [1] was 16.5 µM (inactive), the GI50 [2] was 20 µM (inactive) and the GI50 [3] was 19.7 µM (inactive). The GI50 [4] was 16.7 µM (inactive), the GI50 [5] was 16.6 µM (inactive) and the GI50 [6] was 22 µM (inactive). For the same compound, the GI50 [7] was 3.85 µM (inactive), the GI50 [8] was 13.9 µM (inactive) and the GI50 [9] was 15.2 µM (inactive). The GI50 [10] was 5.69 µM (inactive), the GI50 [11] was 17.5 µM (inactive) and the GI50 [12] was 19 µM (inactive). For the same compound, the GI50 [13] was 17.7 µM (inactive), the GI50 [14] was 17.2 µM and the GI50 [15] was 17.1 µM (inactive). The GI50 [51] was 18.6 µM (inactive), the GI50 [17] was 18.9 µM (inactive) and the GI50 [18] was 28.1 µM (inactive). For the same compound, the GI50 [19] was 21.3 µM (inactive), the GI50 [20] was 18.9 µM (inactive) and the GI50 [21] was 14.6 µM (inactive). For the same compound, the GI50 [22] was 12.7 µM (inactive), the GI50 [23] was 15.1 µM (inactive) and the GI50 [24] was 14.8 µM (inactive). The GI50 [25] was 17.9 µM (inactive), the GI50 [27] was 16.7 µM (inactive) and the GI50 [28] was 9.68 µM (inactive). For the same compound, the GI50 [29] was 20.3 µM (inactive), the GI50 [52] was 14.4 µM (inactive) and the GI50 [30] was > 10 µM (inactive). The GI50 [31] was 13.5 µM (inactive), the GI50 [32] was 14.5 µM (inactive) and the GI50 [33] was 17.6 µM (inactive). For the same compound, the GI50 [34] was 11.2 µM (inactive), the GI50 [35] was 18.7 µM (inactive) and the GI50 [37] was 18.5 µM (inactive). The GI50 [38] was 17 µM (inactive), the GI50 [39] was 16.8 µM (inactive) and the GI50 [40] was 29.2 µM (inactive). The GI50 [42] was 19.5 µM (inactive), the GI50 [43] was 18.5 µM (inactive) and the GI50 [53] was 21.7 µM (inactive). For the same compound, the GI50 [44] was 18.2 µM (inactive), the GI50 [54] was 19.5 µM (inactive) and the GI50 [45] was 16.2 µM (inactive). The GI50 [55] was 19.4 µM (inactive), the GI50 [46] was 16.1 µM (inactive) and the GI50 [47] was 20.8 µM (inactive). For the same compound, the GI50 [49] was 14.2 µM (inactive).

`COc1cc([C@@H]2c3cc4c(cc3[C@@H](NCCCN(C)C)[C@H]3COC(=O)[C@H]23)OCO4)cc(OC)c1O` was tested, and the GI50 [4] was 0.11 µM (active), the GI50 [6] was 0.0785 µM (active) and the GI50 [10] was 0.141 µM (active). For the same compound, the GI50 [11] was 0.526 µM (active), the GI50 [12] was 0.51 µM (active) and the GI50 [14] was 0.847 µM. The GI50 [15] was 0.0447 µM (active), the GI50 [17] was 1.62 µM (inactive) and the GI50 [18] was 0.337 µM (active). For the same compound, the GI50 [20] was 0.834 µM (active), the GI50 [21] was 0.632 µM (active) and the GI50 [22] was 0.359 µM (active). The GI50 [56] was 0.569 µM (active), the GI50 [25] was 0.0436 µM (active) and the GI50 [26] was 0.242 µM (active). For the same compound, the GI50 [29] was 0.0252 µM (active), the GI50 [52] was 0.525 µM (active) and the GI50 [30] was 0.729 µM (active). For the same compound, the GI50 [32] was 1.34 µM (inactive), the GI50 [34] was 0.48 µM (active) and the GI50 [37] was 0.17 µM (active). The GI50 [38] was 0.399 µM (active), the GI50 [41] was 0.264 µM (active) and the GI50 [57] was 0.248 µM (active). The GI50 [43] was 0.376 µM (active), the GI50 [45] was 0.381 µM (active) and the GI50 [46] was 0.223 µM (active). For the same compound, the GI50 [49] was 0.44 µM (active).

`CCC(=C/[C@H](C)C/C=C/C(C)=C/[C@@H](C)C(=O)[C@@H](C)[C@H](O)[C@@H](C)CC)/C=C/[C@H]1CC=CC(=O)O1` [CALLYSTATIN A] was tested, and the GI50 [1] was < 0.0012 µM (active), the GI50 [2] was < 0.0012 µM (active) and the GI50 [3] was < 0.0012 µM (active). The GI50 [4] was < 0.0012 µM (active), the GI50 [58] was < 0.0012 µM (active) and the GI50 [5] was < 0.0012 µM (active). For the same compound, the GI50 [6] was < 0.0012 µM (active), the GI50 [7] was < 0.0012 µM (active) and the GI50 [59] was < 0.0012 µM (active). For the same compound, the GI50 [11] was < 0.0012 µM (active), the GI50 [12] was < 0.0012 µM (active) and the GI50 [13] was < 0.0012 µM (active). The GI50 [14] was under 0.0012 µM, the GI50 [15] was < 0.0012 µM (active) and the GI50 [51] was < 0.0012 µM (active). For the same compound, the GI50 [16] was 0.329 µM (active), the GI50 [17] was < 0.0012 µM (active) and the GI50 [60] was < 0.0012 µM (active). The GI50 [18] was < 0.0012 µM (active), the GI50 [19] was < 0.0012 µM (active) and the GI50 [21] was < 0.0012 µM (active). The GI50 [22] was < 0.0012 µM (active), the GI50 [24] was < 0.0012 µM (active) and the GI50 [61] was < 0.0012 µM (active). For the same compound, the GI50 [62] was < 0.0012 µM (active), the GI50 [63] was < 0.0012 µM (active) and the GI50 [64] was < 0.0012 µM (active). The GI50 [25] was 0.0887 µM (active), the GI50 [26] was < 0.0012 µM (active) and the GI50 [27] was 0.0168 µM (active). For the same compound, the GI50 [28] was < 0.0012 µM (active), the GI50 [29] was < 0.0012 µM (active) and the GI50 [52] was < 0.0012 µM (active). The GI50 [65] was < 0.0012 µM (active), the GI50 [30] was < 0.0012 µM (active) and the GI50 [31] was < 0.0012 µM (active). The GI50 [32] was < 0.0012 µM (active), the GI50 [33] was < 0.0012 µM (active) and the GI50 [66] was < 0.0012 µM (active). For the same compound, the GI50 [34] was 2.67 µM (inactive), the GI50 [35] was < 0.0012 µM (active) and the GI50 [36] was < 0.0012 µM (active). For the same compound, the GI50 [37] was < 0.0012 µM (active), the GI50 [38] was < 0.0012 µM (active) and the GI50 [39] was < 0.0012 µM (active). For the same compound, the GI50 [40] was < 0.0012 µM (active), the GI50 [41] was < 0.0012 µM (active) and the GI50 [57] was < 0.0012 µM (active). For the same compound, the GI50 [42] was < 0.0012 µM (active), the GI50 [43] was < 0.0012 µM (active) and the GI50 [53] was < 0.0012 µM (active). For the same compound, the GI50 [54] was < 0.0012 µM (active), the GI50 [45] was < 0.0012 µM (active) and the GI50 [67] was < 0.0012 µM (active). The GI50 [55] was < 0.0012 µM (active), the GI50 [46] was < 0.0012 µM (active) and the GI50 [47] was < 0.0012 µM (active). The GI50 [48] was < 0.0012 µM (active) and the GI50 [49] was < 0.0012 µM (active).
